Key:
[1] = test system: FKBP5; experiment: qPCR FKBP5 expression in HeLa cells (GR transactivation); type: cell-based, human; settings: beclomethasone 1 μM, Rg1 50 μM or combination
Experimental: (§1) HeLa (human cervical cancer) cells were cultured in Dulbecco's Modified Eagle's (DMEM) High Glucose (HG) medium without phenol red supplemented with 10% Fetal Calf Serum (FCS) and 10% Glutamax (Sigma-Aldrich). The cells were maintained at 37° C. and 5% CO2. At 24 h before adding the treatment, the medium was replaced by DMEM HG with 10% charcoal-inactivated serum and 10% Glutamax (Sigma-Aldrich). The cells were exposed to short- and long-term compound treatments. […] Subsequently, TNF-α (10 ng/ml) was added along with the compound treatments for 6 h (this last step was not added in the actinomycin-D and cycloheximide experiments).
To determine levels of gene expression in zebrafish larvae, 3 dpf larvae were used in both wounded and non-wounded conditions, and after short- and long-term treatments. Groups of 15 larvae were collected in TRIzol reagent (ThermoFisher) and total RNA was isolated using miRNeasy mini kit (Qiagen, Hilden, Germany). For experiments in HeLa cells, cells were seeded in 6 well plates and after treatment, the cells were removed from the wells using TRIzol reagent and mRNA was isolated using miRNeasy mini kit (Qiagen) according to the manufacturer's instructions. The RNA samples were DNAse-treated utilizing the DNA-free™ DNA Removal Kit (ThermoFisher Scientific). The cDNA synthesis was performed using the iScript cDNA synthesis kit (Bio-Rad Laboratories, Hercules, CA, USA) using 1 μg of RNA per sample. For qPCR, 10 μM of forward primer and 10 μM of reverse primer, 12.5 μl of IQ SYBR Green Supermix (Bio-Rad Laboratories), and 2 μl of cDNA were added to the qPCR reaction mixture. […] The qPCR reactions were performed on a MyiQ-single-color real-time PCR detection system (Bio-Rad Laboratories), with initial denaturation for 3 min, 95° C., and 40 cycles of 15 s at 95.5° C., 15 s at 60° C., and 30 s at 72° C. Cycle threshold values (Ct values, i.e. the cycle numbers at which a threshold value of the fluorescence intensity was reached) were determined for each sample. The gene expression level for each sample was normalized using the expression of ppial (peptidylprolyl isomerase Ab (cyclophilin A)) for zebrafish samples, and 18S rRNA for human cells. The fold change per sample (compared to the respective control group) was calculated using the […]Ct method.

[2] = test system: il1b; settings: previously shown, ref [17]; cited from earlier work
[3] = molecular target: T1, GR (Homo sapiens, UniProt P04150); experiment: nuclear translocation of GR in HeLa cells (immunocytochemistry); type: cell-based; parameters: nuclear translocation by immunocytochemistry (detected with anti-GR antibody D6H2L); settings: 6 h
T1 sequence (P04150 1-777): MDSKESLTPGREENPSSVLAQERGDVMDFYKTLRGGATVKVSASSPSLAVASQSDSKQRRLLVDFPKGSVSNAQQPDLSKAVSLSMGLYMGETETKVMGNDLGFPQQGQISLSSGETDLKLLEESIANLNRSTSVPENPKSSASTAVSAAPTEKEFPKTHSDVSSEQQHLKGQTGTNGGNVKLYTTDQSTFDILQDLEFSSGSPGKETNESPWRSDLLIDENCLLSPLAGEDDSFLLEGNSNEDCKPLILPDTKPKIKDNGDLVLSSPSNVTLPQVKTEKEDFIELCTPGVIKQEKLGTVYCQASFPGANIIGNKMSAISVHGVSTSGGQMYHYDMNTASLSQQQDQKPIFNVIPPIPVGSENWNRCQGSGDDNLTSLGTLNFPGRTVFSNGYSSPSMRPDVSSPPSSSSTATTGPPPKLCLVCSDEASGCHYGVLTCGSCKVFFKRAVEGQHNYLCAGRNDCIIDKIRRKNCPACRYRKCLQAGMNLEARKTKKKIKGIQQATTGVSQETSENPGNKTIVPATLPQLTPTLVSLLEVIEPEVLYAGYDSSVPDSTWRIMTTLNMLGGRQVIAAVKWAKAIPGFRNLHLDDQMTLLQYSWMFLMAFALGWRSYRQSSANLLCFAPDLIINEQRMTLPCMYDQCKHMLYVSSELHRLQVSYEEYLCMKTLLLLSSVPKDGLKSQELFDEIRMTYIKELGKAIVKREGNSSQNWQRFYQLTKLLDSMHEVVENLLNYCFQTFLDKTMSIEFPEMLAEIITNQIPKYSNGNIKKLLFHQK
Experimental: as §1
To determine the nuclear translocation of GR, immunocytochemistry on GR in Hela cells was performed. The cells were seeded in Nunc™ Lab-Tek™ II Chamber Slide™ System (ThermoFisher Scientific), and cultured in DMEM HG (without phenol red) supplemented with 10% charcoal inactivated serum and […] Glutamax (Sigma-Aldrich) for 48 h. […] In each experiment, 40 randomly selected cells from each treatment group were analyzed. The relative nuclear translocation of the GR was quantified by determining the integrated fluorescence intensity in the nucleus and the whole cell using Fiji ImageJ v1.53c, and these values were corrected for the mean background fluorescence. The percentage of nuclear translocation was assessed by determining the corrected density in the nucleus relative to the corrected density in the whole cell (in %).

Structure (SMILES)	FKBP5 expression, long-term [1]	FKBP5 expression, short-term [1]	il1b expression after wounding [2]	nuclear translocation level of GR ([3]; beclomethasone 0.01 μM, vs vehicle)	nuclear translocation level of GR ([3]; beclomethasone 0.1 and 1 μM)	nuclear translocation level of GR ([3]; Rg1 5, 10 and 20 μM, vs vehicle)
C[C@H]1C[C@H]2[C@@H]3CCC4=CC(=O)C=C[C@]4(C)[C@@]3(Cl)[C@@H](O)C[C@]2(C)[C@@]1(O)C(=O)CO [beclomethasone, reference compound]	increased over time	strongly increased the expression of these genes after short-term treatment	transrepressed	significantly increased the translocation level compared to vehicle	maximal nuclear translocation was observed	
CC(C)=CCC[C@](C)(O[C@@H]1O[C@H](CO)[C@@H](O)[C@H](O)[C@H]1O)[C@H]1CC[C@]2(C)[C@@H]1[C@H](O)C[C@@H]1[C@@]3(C)CC[C@H](O)C(C)(C)[C@@H]3[C@@H](O[C@@H]3O[C@H](CO)[C@@H](O)[C@H](O)[C@H]3O)C[C@]12C [Rg1, (3β,6α, 12β)-3,12-Dihydroxydammar-24-ene-6,20-diyl bis-β-D-glucopyranoside]	did not affect the expression of these genes	did not affect the expression of these genes	transrepressed			only increased the translocation level compared to the vehicle treatment at 20 μM, still inducing only partial translocation

Reference: patent US20260306525A1, “COMBINATION THERAPY GLUCOCORTICOIDS AND GINSENOSIDE” (FYTAGORAS B.V., priority 2023, published 2026)
